Measurements taken from PMC9227944, “Simultaneous Spray Drying for Combination Dry Powder Inhaler Formulations” (Pharmaceutics, 2022).
Values after ≈ are worked out from the molar mass of the structure shown.

How the values were obtained:
[1] = ligand exchange; cited from earlier work
[2] = Chemical stability in solution; assay type: physicochemical; settings: bevacizumab and cisplatin in the same aqueous solution
human recombinant VEGF = target: T1, human recombinant VEGF (Homo sapiens, UniProt P15692); assay: VEGF binding competitive ELISA assay; settings: compared with BEV stock positive control
T1 construct: purchased R&D Systems
T1 sequence (P15692 1-191 isoform P15692-4): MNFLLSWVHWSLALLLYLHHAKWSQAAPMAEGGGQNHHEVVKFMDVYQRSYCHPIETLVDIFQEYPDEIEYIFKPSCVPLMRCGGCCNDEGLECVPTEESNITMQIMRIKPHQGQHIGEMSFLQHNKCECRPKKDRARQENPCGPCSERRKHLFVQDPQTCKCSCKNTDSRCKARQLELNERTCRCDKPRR
Description: Spray-dried powders or as-received API were reconstituted to a 4 mg/mL active in the buffered saline and allowed to dissolve for 60 min. […] Standards were prepared according to the kit protocol.
After incubation, 50 µL of the assay diluent was added to each of the wells of the supplied plate. A total of 200 µL each of the sample (in triplicate) and standards were added to respective wells and incubated for 2 h at ambient temperature. The plate was washed three times with 400 µL of the kit’s wash buffer, then 200 µL of the VEGF-conjugate was added. The plate was incubated for another 2 h, then washed again three times, as previously. A 1:1 mixture of the kit’s color reagent A and B were mixed, then 200 µL was added to each well. After a 30 min incubation at ambient temperature, 50 µL of stop solution was added to each well. The absorbances were read on an M5e plate reader (Molecular Devices, San Jose, CA, USA) using a 450 nm detection wavelength and 540 nm as the blank wavelength for baseline correction. The quantified concentration of unbound VEGF in pg/mL was reported. All samples were analyzed in triplicate.
Briefly, reconstituted simul-spray powders were incubated with VEGF protein in the assay buffer. Next, the quantity of unbound VEGF in the solution was quantified by a commercially available VEGF ELISA assay kit.

[3] = Equilibrium solubility of API and excipients in spray solvents (TGA of saturated supernatant)
Description: The solutions were centrifuged to remove excess solids. A total of 50 µL of the supernatant was pipetted into an aluminum pan and placed into a Thermogravimetric Analyzer (Discovery TGA, TA Instruments, New Castle, DE, USA). The sample was heated to 130 °C at a ramp rate of 50 °C/min and then held isothermal for 10 min to allow all of the solvent to evaporate. The final mass of the sample (of the known 50 µL volume) was recorded and used to determine the solubility in mg/mL. Samples were measured in triplicate.
Solubility screening was performed on the three small molecule APIs and the L-leucine excipient in water, 90/10 methanol/water and 80/20 ethanol/water by weight. These solvent ratios were chosen to maximize the solubility of L-leucine and API. Additional details on solubility and formulation selection can be found in the Supplementary Information.

[4] = water, thermodynamic from solid, Solubility, mg/mL in Water
[5] = organic solvent or mixture, thermodynamic from solid, Solubility, mg/mL in 90/10 Methanol/Water

SMILES | Chemical stability in aqueous solution [1] | Chemical stability when co-dissolved [2] | VEGF inhibition (in words) (human recombinant VEGF) | solubility ([3]; 80/20 ethanol/water by weight, organic solvent or mixture, thermodynamic from solid, Solubility, mg/mL in 80/20 Ethanol/Water, 80/20 ethanol/water by mass) [µg/mL] | solubility ([3]; 90/10 methanol/water by weight, organic solvent or mixture, thermodynamic from solid, Solubility, mg/mL in 90/10 Methanol/Water, 90/10 methanol/water by mass) [µg/mL] | solubility ([3]; water, Solubility in water at neutral pH, water at neutral pH) [µg/mL] | solubility [3, 4] [µg/mL] | Solubility, mg/mL in 80/20 Ethanol/Water [3] [mg/mL] | solubility ([3]; organic solvent or mixture, thermodynamic from solid, Solubility, mg/mL in 80/20 Ethanol/Water) [µg/mL] | solubility [3, 5] [µg/mL] | Solubility in water at neutral pH [3]
N.N.[Cl][Pt][Cl] [CP, cisplatin] | not chemically stable in an aqueous solution for longer than a few hours | not chemically stable when co-dissolved in the same solution | do not inhibit VEGF measurably |  |  |  |  |  |  |  | 
C#Cc1cccc(Nc2ncnc3cc(OCCOC)c(OCCOC)cc23)c1 [ERL, erlotinib] |  |  | do not inhibit VEGF measurably | < 1000 | 25000 (≈ 63.5 mM) | < 100 | < 1000 |  |  |  | 
CC(C)C[C@H](N)C(=O)O [L-Leucine, L-leucine] |  |  |  |  |  |  | 21000 (≈ 160 mM) | 2.0 (≈ 15.2 mM) | 1700 (≈ 13 mM) | 2500 (≈ 19.1 mM) | 
CC(=O)O[C@H]1C(=O)[C@@]2(C)[C@H]([C@H](OC(=O)c3ccccc3)[C@]3(O)C[C@H](OC(=O)[C@H](O)[C@@H](NC(=O)c4ccccc4)c4ccccc4)C(C)=C1C3(C)C)[C@]1(OC(C)=O)CO[C@@H]1C[C@@H]2O [PTX, paclitaxel] |  |  | do not inhibit VEGF measurably |  |  |  | < 1000 |  |  | < 1000 | sparingly soluble
